Assay [1] addresses T1, TRIM21^PRY-SPRY (287-465aa) (Homo sapiens, UniProt P19474). Put plainly: SPR. Format: binding.
In the next assay the test system is PANC-1. Put plainly: cells. The settings on record: Homo sapiens, PANC-1, 72 h, read-out: PANC-1 IC50 (µM).
The target in assay [2] is T1, TRIM21^PRY-SPRY (287-465aa). Description: SPR. The class given is binding. This is another data set of the same source.

SMILES strings stand for the structures. Read-outs that look alike come from different tables or passages of the source.

T1 sequence (P19474 287-465): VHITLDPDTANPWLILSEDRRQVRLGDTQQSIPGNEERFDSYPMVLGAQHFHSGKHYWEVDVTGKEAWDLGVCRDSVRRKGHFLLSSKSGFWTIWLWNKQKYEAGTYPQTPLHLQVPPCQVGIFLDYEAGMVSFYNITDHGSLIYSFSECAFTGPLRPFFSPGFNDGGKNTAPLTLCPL

Compound `CSc1ccccc1-c1ccc(C(=O)N(C)CC2CCCCC2)c(S(C)(=O)=O)c1` [1a, Compound 1a] returned a Kd in assay [1] of 123 nM. Compound `CSc1ccccc1-c1ccc(C(=O)N(C)CC2CCOCC2)c(S(C)(=O)=O)c1` [1b, Compound 1b] gave a Kd in assay [1] of 29 nM.

`CSc1ccccc1-c1ccc(C(=O)N(C)Cc2cc[nH]c2)c(S(C)(=O)=O)c1` [1c, Compound 1c] had a Kd in assay [1] of 17 nM.

In assay [1], `CSc1ccccc1-c1ccc(C(=O)N(C)Cc2ccon2)c(S(C)(=O)=O)c1` [1d, Compound 1d] came in with a Kd of 171 nM. On the same count and under the same terms, then `CCc1ccccc1CN(C)C(=O)c1ccc(-c2ccccc2SC)cc1S(C)(=O)=O` [1e, Compound 1e], with 581 nM; and `CSc1ccccc1-c1ccc(C(=O)N(C)CC2CCOC2)c(S(C)(=O)=O)c1` (centres unmarked) [1f, Compound 1f], with 350 nM. In turn, `CSc1ccccc1-c1ccc(C(=O)N(C)Cc2cc[nH]c(=O)c2)c(S(C)(=O)=O)c1` [1g, Compound 1g] gave a Kd in assay [1] of 11 nM.

Compound `CSc1ccccc1-c1ccc(C(=O)N(C)CC2CCCCC2(F)F)c(S(C)(=O)=O)c1` (centres unmarked) [2a, Compound 2a] showed a Kd in assay [1] of 234 nM. Further, in the assay with PANC-1, the IC50 turned out to be 0.329 µM. In assay [1], `CN(CC1CCCCC1)C(=O)c1ccc(-c2ccccc2F)cc1S(C)(=O)=O` [2b, Compound 2b] displayed a Kd of 2150 nM. Further, in the assay on PANC-1, the IC50 worked out at 5.14 µM.

In the case of `Cc1ccccc1-c1ccc(C(=O)N(C)CC2CCCCC2)c(S(C)(=O)=O)c1` [2c, Compound 2c], binding in assay [1] was characterised by a dissociation constant (Kd) of 610 nM. For `Cc1ccccc1-c1ccc(C(=O)N(C)CC2CCCCC2)c(S(C)(=O)=O)c1` [2c], the IC50 in the assay on PANC-1 was 1.62 µM. In assay [1], `COc1cnccc1-c1ccc(C(=O)N(C)CC2CCCCC2)c(S(C)(=O)=O)c1` [2d, Compound 2d] showed a Kd of 1570 nM. Regarding `COc1cnccc1-c1ccc(C(=O)N(C)CC2CCCCC2)c(S(C)(=O)=O)c1` [2d], the IC50 in the assay on PANC-1 was found to be 0.791 µM.

For the compound `CSc1cc(F)ccc1-c1ccc(C(=O)N(C)CC2CCCCC2)c(S(C)(=O)=O)c1` [2e], the IC50 in the assay on PANC-1 is 0.094 µM. `CSc1ccccc1-c1ccc(C(=O)N(C)CC2(F)CCCCC2)c(S(C)(=O)=O)c1` [compound 1, Compound 1] gave a Kd in assay [2] of 193 nM.

One may read the Kd as the concentration at which binding is half-saturated. High values mean lower affinity, low ones higher affinity. A word on the IC50: it is the midpoint of a concentration-inhibition curve.

The record behind these values is doi:10.1101/2024.12.03.626577v1 (biorxiv, 2024).
